Patent US4342762A, “Basic ethers and pharmaceutical compositions containing the same” (Egyt Gyogyszervegyeszeti Gyar, priority 1979, dated 1982)

Key:
white mice [1] = assay: inhibition of motility, Dews apparatus (Borsy); format: in vivo; settings: for ED50: Mus musculus, oral pretreatment 30 minutes, observation 30 minutes; for Inhibition of motility Th.I.: therapeutic index
Protocol: (§1) The effect on the inhibition of the oriental activity (inhibition of the motility) was investigated on white mice in a Dews apparatus applied with 8 canals by the method of Borsy [Borsy, J., Csanyi, E., Lazar, I., Arc. Int. Pharmacodyn. 124, 1-2 (1960)]. After an oral pretreatment of 30 minutes the number of light-interruptions due to the movements of groups consisting of 3-3 mice was registered. The observation lasted for 30 minutes. The effect of the compounds exerted on the duration of hexobarbital-narcosis was tested by the method of Kaergaard [Kaergaard, N. C., Magnussen, M. P., Kampmann, E., Frey, H. H., Arc. Int. Pharmacodyn. 2, 170; (1967)]. Groups of animals consisting of 6-6 mice were treated.

white mice [2] = assay: analgesic effect, inhibition of acetic acid "writhing" reactions (Wirth et al.); format: in vivo; settings: for ED50: Mus musculus, oral, 1 hour before i.p. 0.4 ml 0.5% acetic acid, read-out: Analgesic effect ED50; for Analgesic effect Therap.index: therapeutic index
Protocol: (§2) The analgesic effect of the new compounds according to the invention was determined by the method of Wirth et al. (Wirth, W., Gosswald, R., Horlein. K., Risse, Kl. H., Kreiskott, H.: Arch. Int. Pharmacodyn. 115, 1; (1958)). 0.4 ml of 0.5% acetic acid was administered i.p. to white mice, and the characteristic "writhing" reactions were counted after 5 minutes. The compounds to be tested had been orally administered an hour before the administration of the acetic acid. The activity is expressed as a percentage of the inhibition referred to the data observed on the control group. The results are given in Table I. The toxicity data determined on white mice of both sexes weighing 18-24 g belonging to the strain CFLP are also given. Administration was effected with an oral dose of 20 ml/kg. After treatment the animals were kept under observation for 4 days. The toxicity data (LD50 mg/kg) were determined by the graphic method of Litchfield-Wilcoxon [Litchfield, J.T., Wilcoxon, E. W., J Pharmacol. Exp. Therap. 96, 99; (1949)].

mice = assay: potentiating of hexobarbital-narcosis (Kaergaard); format: in vivo; settings: for ED50: Mus musculus, iv, 40 mg/kg hexobarbital i.v., positive: sleeping period at least 2.5 times control; for Potentiating of narcosis Th.I.: therapeutic index
Protocol: as §1

[3] = acute oral toxicity, graphic method of Litchfield-Wilcoxon, 4 days observation; settings: mouse, in vivo
Protocol: as §2, with “The compounds to be tested had been orally administered an hour before the administration of the acetic acid. The activity is expressed as a percentage of the inhibition referred to the data observed on the control group.” left out

white mice [4] = assay: inhibition of maximal electroshock (MES) (Swinyard et al.); format: in vivo; settings: for ED50: Mus musculus, oral, 1 hour before electroshock 50 Hz, 45 mA, 0.4 sec, total inhibition of tonic extensor convulsion; for Inhibition of MES Th. I.: therapeutic index
Protocol: (§3) The antiepileptic effect was investigated on white mice, after oral administration. The inhibition of maximal electroshock (MES) was determined by the method of Swinyard et al. [Swinyard et al. J. Pharmacol. Exp. Ther. 106, 319-330 (1952)]. White mice weighing 20-25 g were subjected to electric shock through corneal electrodes (Parameters: 50 Hz, 45 mA, 0.4 sec.). The total inhibition of the tonic extensor convulsion was considered as criterion of the anti-convulsive effect. The test-substance had been orally administered one hour before the electroshock. The inhibition of pentetrazole convulsion was determined on white mice by the modified method of Banziger and Hane [Banziger, R., Hane, L.D. Arch. Int. Pharmacodyn. 167, 245-249; (1967)]. I." stands for "therapeutic index."

white mice [5] = assay: inhibition of pentetrazole convulsion (modified Banziger and Hane); format: in vivo; settings: for ED50: Mus musculus, oral; for Inhibition of pentetrazole convulsion Th. I.: therapeutic index
Protocol: as §3

[6] = oral, 20 ml/kg, both sexes 18-24 g, 4 days observation

Structure (SMILES) | ED50 (white mice [1]) [mg/kg] | Inhibition of motility Th.I. (white mice [1]) | ED50 (white mice [2]) [mg/kg] | Analgesic effect Therap.index (white mice [2]) | ED50 (mice) [mg/kg] | Potentiating of narcosis Th.I. (mice) | LD50 at 96 h [3, 6] [mg/kg] | ED50 (white mice [4]) [mg/kg] | Inhibition of MES Th. I. (white mice [4]) | ED50 (white mice [5]) [mg/kg] | Inhibition of pentetrazole convulsion Th. I. (white mice [5]) | LD50 at 96 h ([3]; po) [mg/kg]
CN(C)CCCOC1(c2ccccc2)CC2CCC1(C)C2(C)C (racemic) [Example 14, (±)-2-(3'-dimethylaminopropoxy)-2-phenyl-1,7,7-trimethyl-bicyclo(2,2,1)heptane] | 38 | 26.3 | 50 | 20.0 | 64 | 15.6 | 1000 |  |  |  |  | 
CC(C)N(CCOC1(Cc2ccccc2)CC2CCC1(C)C2(C)C)C(C)C (racemic) [Example 3, (±)-2-benzyl-2-(2'-diisopropylaminoethoxy)-1,7,7-trimethyl-bicyclo(2,2,1) heptane] |  |  | 120 | 10.4 | 120 | 10.4 | 1250 |  |  |  |  | 
CC1(C)C2CCC1(C)C(Cc1ccccc1)(OCCCN1CCN(Cc3ccccc3)CC1)C2 (racemic) [Example 4] |  |  | 200 | 10.0 |  |  | 2000 |  |  |  |  | 
CC(COC1(c2ccc(Cl)cc2)CC2CCC1(C)C2(C)C)CN(C)C (single isomer, unassigned; (+)) [Example 13, (+)-2-[(3'-dimethylamino-2'-methyl)-propoxy]-2-(p-chloro-phenyl)-1,7,7-trimethyl-bicyclo(2,2,1)heptane] | 170 | 11.8 | 200 | 10.0 |  |  |  | 140 | 14.3 | 140 | 14.3 | 2000
CCN(CC)CCCOC1(Cc2ccccc2)CC2CCC1(C)C2(C)C (racemic) [Example 6, (±)-2-benzyl-2-(3'-diethylaminopropoxy)-1,7,7-trimethyl-bicyclo(2,2,1)heptane] | 100 | 20.0 | 50 | 40.0 | 80 | 25.0 | 2000 | 120 | 16.7 | 54 | 37.0 | 
CC(C)N(CCCOC1(Cc2ccccc2)CC2CCC1(C)C2(C)C)C(C)C (racemic) [Example 5, (±)-2-benzyl-2-(3'-diisopropylaminopropoxy)-1,7,7-trimethyl-bicyclo(2,2,1)heptane] | 190 | 10.5 | 100 | 20.0 | 120 | 16.7 | 2000 | 380 | 5.3 | 140 | 14.3 | 
CN(C)CCCOC1(c2cccs2)CC2CCC1(C)C2(C)C (racemic) [Example 18, (±)-2-(3'-dimethylaminopropoxy)-2-(2"-thienyl)-1,7,7-trimethyl-bicyclo(2,2,1)heptane] |  |  | 140 | 10.0 |  |  |  |  |  |  |  | 1400
COc1ccc(C2(OCCCN(C)C)CC3CCC2(C)C3(C)C)cc1 (racemic) [Example 22, (±)-2-(p-methoxyphenyl)-2-(3'-dimethylaminopropoxy)-1,7,7-trimethyl-bicyclo(2,2,1)heptane] | 100 | 10.0 | 72 | 13.8 | 80 | 12.5 | 1000 |  |  | 96 | 10.4 | 
CCN(CC)CCOC1(Cc2ccc(Cl)cc2)CC2CCC1(C)C2(C)C (racemic) [Example 12] |  |  | 100 | 20.0 | 200 | 10.0 | 2000 | 72 | 27.7 | 110 | 18.2 | 
CN(C)CCCOC1(Cc2ccc(Cl)cc2)CC2CCC1(C)C2(C)C (racemic) [Example 11, (±)-2-(p-chloro-benzyl)-2-(3'-dimethylaminopropoxy)-1,7,7-trimethyl-bicyclo(2,2,1)heptane] | 130 | 11.5 | 75 | 20.0 | 130 | 11.5 | 1500 |  |  |  |  | 
CC(=O)Nc1ccc(O)cc1 [Paracetamole, N-(4-Hydroxyphenyl)-acetamide, reference compound] |  |  | 180 |  |  |  |  |  |  |  |  | 
CCN(CC)CCCOC1(c2cccs2)CC2CCC1(C)C2(C)C (racemic) [Example 19, (±)-2-(3'-diethylaminopropoxy)-2-(2"-thienyl)-1,7,7-trimethyl-bicyclo(2,2,1)heptane] |  |  | 120 | 8.3 | 50 | 20.0 |  |  |  |  |  | 1000
CCN(CC)CCCOC1(c2ccccc2)CC2CCC1(C)C2(C)C (racemic) [Example 16, (±)-2-(3-diethylaminopropoxy)-2-phenyl-1,7,7-trimethyl-bicyclo(2,2,1)heptane] |  |  | 70 | 10.0 | 20 | 35.0 | 700 | 30 | 23.3 | 60 | 11.7 | 
CN1C(=O)OC(C)(C)C1=O [Trimethadion, 3,5,5-Trimethyl-2,4-oxazolidinedione, reference compound] |  |  |  |  |  |  |  | 4.9 | 4.3 | 400 | 5.3 | 
